In brackets after ≈: the same amount, converted by molar mass. Positions of bridges follow the written chain, without caps; N, C: chain ends. Non-standard residues stand in square brackets, D forms with d. Residues, ends and D or L forms follow the SMILES beside them. Groups on a side chain read outwards from the residue. *: point of attachment. Palmitoyl(16-(5-tetrazolyl)) = O=C(CCCCCCCCCCCCCCCc1nnn[nH]1)*; Lys(CH2CO2H)2 = N[C@@H](CCCCN(CC(=O)O)CC(=O)O)C(=O)O; C17 diacid = O=C(O)CCCCCCCCCCCCCCCC(=O)*; C16 diacid = O=C(O)CCCCCCCCCCCCCCC(=O)*; NTA = O=C(O)CN(CC(=O)O)CC(=O)*; hCys = N[C@@H](CCS)C(=O)O; Orn = NCCC[C@H](N)C(=O)O; Dab = NCC[C@H](N)C(=O)O; Dap = NC[C@H](N)C(=O)O; AEEA = NCCOCCOCC(=O)O
Assay: physchem
Protocol: From a stock solution in vehicle, either H2O or 10 mM phosphate, containing 1 mg (as weighed) compound per ml, 8-11 aliquots are withdrawn and pH-adjusted individually with HCl/NaOH, to cover the whole pH range.

Compound	solubility (pH 7.1, Solubility Conc.) [µM]	solubility (pH 7.3, Solubility Conc.) [µM]	solubility (pH 7.4, Solubility Conc.) [µM]	solubility (pH 7.5, Solubility Conc.) [µM]	solubility (pH 7.6, Solubility Conc.) [µM]	solubility (pH 7.8, Solubility Conc.) [µM]	solubility (pH 8, Solubility Conc.) [µM]	solubility (pH 6.8, Solubility Conc.) [µM]	solubility (pH 6.2, Solubility Conc.) [µM]	solubility (pH 7.9, Solubility Conc.) [µM]	further results
CC(=O)N[C@H]1CCC(=O)NCC[C@@H](C(=O)N2CCC[C@H]2C(=O)N2CCC[C@H]2C(=O)N[C@@H](CCCNC(=N)N)C(=O)N[C@@H](CC(=O)O)C(=O)N[C@@H](CCCCN(CC(=O)O)CC(=O)O)C(=O)N[C@@H](CCCCNC(=O)COCCOCCNC(=O)CCCCCCCCCCCCCCCc2nnn[nH]2)C(N)=O)NC(=O)[C@H](Cc2c[nH]c3ccccc23)NC(=O)[C@H](CCCNC(=N)N)NC(=O)[C@@H](Cc2ccccc2)NC(=O)[C@H](Cc2c[nH]cn2)NC1=O [Example 16, Ac-c[Glu-His-D-Phe-Arg-Trp-Dab]-Pro-Pro-Arg-Asp-Lys(biscarboxymethyl)-Lys[(2-{2-[16-(tetrazol-5-yl)hexadecanoylamino]ethoxy}ethoxy)acetyl]-NH2] (Ac-EH[dF]RW[Dab]PPRD[Lys(CH2CO2H)2]K([AEEA-Palmitoyl(16-(5-tetrazolyl))])-NH2; lactam 1-6)	96 (≈ 210 µg/mL)	191 (≈ 418 µg/mL)	262 (≈ 573 µg/mL)	357 (≈ 781 µg/mL)	431 (≈ 942 µg/mL)	409 (≈ 894 µg/mL)	447 (≈ 977 µg/mL)	–	–	–	solubility (pH 6.7, Solubility Conc.): 42 µM (≈ 91.8 µg/mL)
CC(=O)N[C@H]1CCCNC(=O)C[C@@H](C(=O)N2CCC[C@H]2C(=O)N2CCC[C@H]2C(=O)N[C@@H](Cc2c[nH]cn2)C(=O)N[C@@H](CCC(=O)O)C(=O)N[C@@H](CCCCN(CC(=O)O)CC(=O)O)C(=O)N[C@@H](CCCCNC(=O)COCCOCCNC(=O)CCCCCCCCCCCCCCCC(=O)O)C(N)=O)NC(=O)[C@H](Cc2c[nH]c3ccccc23)NC(=O)[C@H](CCCNC(=N)N)NC(=O)[C@@H](Cc2ccccc2)NC(=O)[C@H](Cc2c[nH]cn2)NC1=O [Example 55, Ac-c[Orn-His-D-Phe-Arg-Trp-Asp]-Pro-Pro-His-Glu-Lys(biscarboxymethyl)-Lys({2-[2-(16-carboxyhexadecanoylamino)ethoxy]ethoxy}acetyl)-NH2] (Ac-[Orn]H[dF]RWDPPHE[Lys(CH2CO2H)2]K([AEEA-C17 diacid])-NH2; lactam 1-6)	–	–	–	–	422 (≈ 910 µg/mL)	–	426 (≈ 919 µg/mL)	–	–	–	solubility (pH 6.3, Solubility Conc.): 152 µM (≈ 328 µg/mL); solubility (pH 6.5, Solubility Conc.): 236 µM (≈ 509 µg/mL); solubility (pH 6.6, Solubility Conc.): 337 µM (≈ 727 µg/mL); solubility (pH 6.7, Solubility Conc.): 436 µM (≈ 941 µg/mL); solubility (pH 6.9, Solubility Conc.): 426 µM (≈ 919 µg/mL); solubility (pH 7.2, Solubility Conc.): 414 µM (≈ 893 µg/mL); solubility (pH 7.7, Solubility Conc.): 435 µM (≈ 939 µg/mL)
CC(=O)N[C@H]1CCSSC[C@@H](C(=O)N2CCC[C@H]2C(=O)N2CCC[C@H]2C(=O)N[C@@H](CCCCN)C(=O)N[C@@H](CC(=O)O)C(=O)N[C@@H](CNC(=O)CN(CC(=O)O)CC(=O)O)C(=O)N[C@@H](CCCCNC(=O)COCCOCCNC(=O)CCCCCCCCCCCCCCCc2nnn[nH]2)C(N)=O)NC(=O)[C@H](Cc2c[nH]c3ccccc23)NC(=O)[C@H](CCCNC(=N)N)NC(=O)[C@@H](Cc2ccccc2)NC(=O)[C@H](Cc2c[nH]cn2)NC1=O [Example 61, Ac-c[homoCys-His-D-Phe-Arg-Trp-Cys]-Pro-Pro-Lys-Asp-Dap(BCMA)-Lys[(2-{2-[16-(tetrazol-5-yl)hexadecanoylamino]ethoxy}ethoxy)acetyl]-NH2] (Ac-[hCys]H[dF]RWCPPKD[Dap](NTA)K([AEEA-Palmitoyl(16-(5-tetrazolyl))])-NH2; disulfide 1-6)	256 (≈ 558 µg/mL)	630 (≈ 1370 µg/mL)	713 (≈ 1550 µg/mL)	–	–	–	–	46 (≈ 100 µg/mL)	–	–	solubility (pH 3.3, Solubility Conc.): 623 µM (≈ 1360 µg/mL); solubility (pH 4.4, Solubility Conc.): 575 µM (≈ 1250 µg/mL); solubility (pH 4.8, Solubility Conc.): 584 µM (≈ 1270 µg/mL); solubility (pH 5.3, Solubility Conc.): 32 µM (≈ 69.8 µg/mL); solubility (pH 6.3, Solubility Conc.): 26 µM (≈ 56.7 µg/mL); solubility (pH 7.7, Solubility Conc.): 805 µM (≈ 1760 µg/mL)
CC(=O)N[C@H]1CCSSC[C@@H](C(=O)N[C@@H](CO)C(=O)N2CCC[C@H]2C(=O)N[C@@H](CCCCN)C(=O)N[C@@H](CCC(=O)O)C(=O)N[C@@H](CCCCN(CC(=O)O)CC(=O)O)C(=O)N[C@@H](CCCCNC(=O)COCCOCCNC(=O)CCCCCCCCCCCCCCC(=O)O)C(N)=O)NC(=O)[C@H](Cc2c[nH]c3ccccc23)NC(=O)[C@H](CCCNC(=N)N)NC(=O)[C@@H](Cc2ccccc2)NC(=O)[C@H](Cc2c[nH]cn2)NC1=O [Example 60, Ac-c[homoCys-His-D-Phe-Arg-Trp-Cys]-Ser-Pro-Lys-Glu-Lys(biscarboxymethyl)-Lys({2-[2-(15-carboxypentadecanoylamino)ethoxy]ethoxy}acetyl)-NH2] (Ac-[hCys]H[dF]RWCSPKE[Lys(CH2CO2H)2]K([AEEA-C16 diacid])-NH2; disulfide 1-6)	–	459 (≈ 978 µg/mL)	–	–	456 (≈ 972 µg/mL)	461 (≈ 983 µg/mL)	–	457 (≈ 974 µg/mL)	171 (≈ 364 µg/mL)	450 (≈ 959 µg/mL)	solubility (pH 4, Solubility Conc.): 424 µM (≈ 904 µg/mL); solubility (pH 5.4, Solubility Conc.): 126 µM (≈ 269 µg/mL); solubility (pH 6, Solubility Conc.): 133 µM (≈ 283 µg/mL); solubility (pH 6.4, Solubility Conc.): 415 µM (≈ 885 µg/mL)
CC(=O)N[C@H]1CSSC[C@@H](C(=O)N2CCC[C@H]2C(=O)N2CCC[C@H]2C(=O)N[C@@H](CCCCN)C(=O)N[C@@H](CCC(=O)O)C(=O)N[C@@H](CCC(=O)O)C(=O)N[C@@H](CCCCNC(=O)COCCOCCNC(=O)CCCCCCCCCCCCCCC(=O)O)C(N)=O)NC(=O)CNC(=O)[C@H](Cc2c[nH]c3ccccc23)NC(=O)[C@H](CCCNC(=N)N)NC(=O)[C@@H](Cc2ccccc2)NC(=O)[C@H](Cc2c[nH]cn2)NC(=O)[C@H](CCC(=O)O)NC1=O [Example 68, Ac-c[Cys-Glu-His-D-Phe-Arg-Trp-Gly-Cys]-Pro-Pro-Lys-Glu-Glu-Lys({2-[2-(15-carboxypentadecanoylamino)ethoxy]ethoxy}acetyl)-NH2] (Ac-CEH[dF]RWGCPPKEEK([AEEA-C16 diacid])-NH2; disulfide 1-8)	–	181 (≈ 398 µg/mL)	–	184 (≈ 405 µg/mL)	–	–	183 (≈ 402 µg/mL)	–	164 (≈ 361 µg/mL)	188 (≈ 413 µg/mL)	solubility (pH 4, Solubility Conc.): 167 µM (≈ 367 µg/mL); solubility (pH 5.1, Solubility Conc.): 87 µM (≈ 191 µg/mL); solubility (pH 5.8, Solubility Conc.): 102 µM (≈ 224 µg/mL); solubility (pH 6.9, Solubility Conc.): 182 µM (≈ 400 µg/mL)
CC(=O)N[C@H]1CCC(=O)NCCC[C@@H](C(=O)N2CCC[C@H]2C(=O)N2CCC[C@H]2C(=O)N[C@@H](CCCNC(=N)N)C(=O)N[C@@H](CC(=O)O)C(=O)N[C@@H](CCCCN(CC(=O)O)CC(=O)O)C(=O)N[C@@H](CCCCNC(=O)COCCOCCNC(=O)CCCCCCCCCCCCCCCc2nnn[nH]2)C(N)=O)NC(=O)[C@H](Cc2c[nH]c3ccccc23)NC(=O)[C@H](CCCNC(=N)N)NC(=O)[C@@H](Cc2ccccc2)NC(=O)[C@H](Cc2c[nH]cn2)NC1=O [Example 54, Ac-c[Glu-His-D-Phe-Arg-Trp-Orn]-Pro-Pro-Arg-Asp-Lys(biscarboxymethyl)-Lys[(2-{2-[16-(tetrazol-5-yl)hexadecanoylamino]ethoxy}ethoxy)acetyl]-NH2] (Ac-EH[dF]RW[Orn]PPRD[Lys(CH2CO2H)2]K([AEEA-Palmitoyl(16-(5-tetrazolyl))])-NH2; lactam 1-6)	95 (≈ 209 µg/mL)	–	221 (≈ 486 µg/mL)	–	202 (≈ 445 µg/mL)	200 (≈ 440 µg/mL)	–	43 (≈ 94.6 µg/mL)	23 (≈ 50.6 µg/mL)	217 (≈ 478 µg/mL)	solubility (pH 5.5, Solubility Conc.): 22 µM (≈ 48.4 µg/mL); solubility (pH 7, Solubility Conc.): 78 µM (≈ 172 µg/mL)
CC(=O)N[C@H]1CC(=O)NCCC[C@@H](C(=O)N2CCC[C@H]2C(=O)N2CCC[C@H]2C(=O)N[C@@H](CCCNC(=N)N)C(=O)N[C@@H](CC(=O)O)C(=O)N[C@@H](CCCCN(CC(=O)O)CC(=O)O)C(=O)N[C@@H](CCCCNC(=O)COCCOCCNC(=O)CCCCCCCCCCCCCCCc2nnn[nH]2)C(N)=O)NC(=O)[C@H](Cc2c[nH]c3ccccc23)NC(=O)[C@H](CCCNC(=N)N)NC(=O)[C@@H](Cc2ccccc2)NC(=O)[C@H](Cc2c[nH]cn2)NC1=O [Example 2, Ac-c[Asp-His-D-Phe-Arg-Trp-Orn]-Pro-Pro-Arg-Asp-Lys(biscarboxymethyl)-Lys[(2-{2-[16-(tetrazol-5-yl)hexadecanoylamino]ethoxy}ethoxy)acetyl]-NH2] (Ac-DH[dF]RW[Orn]PPRD[Lys(CH2CO2H)2]K([AEEA-Palmitoyl(16-(5-tetrazolyl))])-NH2; lactam 1-6)	–	267 (≈ 584 µg/mL)	465 (≈ 1020 µg/mL)	–	454 (≈ 993 µg/mL)	–	–	–	–	458 (≈ 1000 µg/mL)	solubility (pH 5.8, Solubility Conc.): 21 µM (≈ 45.9 µg/mL); solubility (pH 6.4, Solubility Conc.): 26 µM (≈ 56.9 µg/mL); solubility (pH 7, Solubility Conc.): 67 µM (≈ 146 µg/mL); solubility (pH 7.2, Solubility Conc.): 172 µM (≈ 376 µg/mL)
CC(=O)N[C@H]1CNC(=O)C[C@@H](C(=O)N2CCC[C@H]2C(=O)N2CCC[C@H]2C(=O)N[C@@H](CCCNC(=N)N)C(=O)N[C@@H](CC(=O)O)C(=O)N[C@@H](CCCCN(CC(=O)O)CC(=O)O)C(=O)N[C@@H](CCCCNC(=O)COCCOCCNC(=O)CCCCCCCCCCCCCCCc2nnn[nH]2)C(N)=O)NC(=O)[C@H](Cc2c[nH]c3ccccc23)NC(=O)[C@H](CCCNC(=N)N)NC(=O)[C@@H](Cc2ccccc2)NC(=O)[C@H](Cc2c[nH]cn2)NC1=O [Example 36, Ac-c[Dap-His-D-Phe-Arg-Trp-Asp]-Pro-Pro-Arg-Asp-Lys(biscarboxymethyl)-Lys[(2-{2-[16-(tetrazol-5-yl)hexadecanoylamino]ethoxy}ethoxy)acetyl]-NH2] (Ac-[Dap]H[dF]RWDPPRD[Lys(CH2CO2H)2]K([AEEA-Palmitoyl(16-(5-tetrazolyl))])-NH2; lactam 1-6)	87 (≈ 188 µg/mL)	–	261 (≈ 563 µg/mL)	488 (≈ 1050 µg/mL)	504 (≈ 1090 µg/mL)	–	–	–	–	514 (≈ 1110 µg/mL)	solubility (pH 5.7, Solubility Conc.): 17 µM (≈ 36.7 µg/mL); solubility (pH 6, Solubility Conc.): 18 µM (≈ 38.9 µg/mL); solubility (pH 6.5, Solubility Conc.): 28 µM (≈ 60.4 µg/mL); solubility (pH 8.1, Solubility Conc.): 505 µM (≈ 1090 µg/mL)

From patent publication US20130012432A1, “Peptides for Treatment of Obesity” (Novo Nordisk A/S, priority 2010, published 2013)
